The values that follow come from article PMC6923382, “Small molecules that inhibit TNF signalling by stabilising an asymmetric form of the trimer” (Nature Communications, 2019).

A word on the IC50: it is the midpoint of a concentration-inhibition curve.

Where “and” joins values, the source holds several entries; their conditions need not be identical. Equal entries are not always repeated.

One assay concerns Mouse TNF superfamily. Nature of the assay: Thermal denaturation, mouse TNF superfamily. The assay is classed as binding. Conditions: 100 µM compound, 0.1 mg/mL sample; single experiment. The procedure:
A fluorescence probed thermal denaturation assay was performed to assess the effect of the compounds on the thermal stability of TNF (or other members of the TNF family) as a measure of compound binding. The reaction mixture contained 5 µL of 30× SYPRO® Orange dye (Invitrogen) and 5 µL of TNF (at 1 mg/mL), 37.5 μL PBS, pH 7.4 and 2.5 μL of compound (at 2 mM in DMSO). The mixture (10 µL) was dispensed in quadruplicate into a 384 PCR optical well plate and was run on a 7900HT Fast Real-Time PCR System ([…]). The PCR System heating device was set at 20 °C to 99 °C with a ramp rate of 1.1 °C min^−1; fluorescence changes in the wells were monitored by a CCD device. The fluorescence intensity increase was plotted as a function of temperature and the Tm calculated as the midpoint of this denaturation curve (determined as the point of inflection).
Compound based thermal stability increase (oC)
100 µM compound 0.1 mg/mL sample […]
compared to human TNF. Human proteins were provided through a collaboration with Beryllium. Data from a single experiment. […]
compared to mouse TNF. Mouse proteins were purchased from R&D Systems. (Note: No Tm for Lymphotoxin (LTa) was detected in this assay making a change in Tm unmeasurable).
Data from a single experiment.
(also on this page, place not known: 16.0Thermal 10Thermal stability difference (oC) stability increase (oC))

The target in assay [1] is T1, mouse TNF (Mus musculus, UniProt P06804).
T1 construct: stabilise an asymmetrical form of the soluble TNF trimer
T1 sequence (P06804 80-235 limits assumed): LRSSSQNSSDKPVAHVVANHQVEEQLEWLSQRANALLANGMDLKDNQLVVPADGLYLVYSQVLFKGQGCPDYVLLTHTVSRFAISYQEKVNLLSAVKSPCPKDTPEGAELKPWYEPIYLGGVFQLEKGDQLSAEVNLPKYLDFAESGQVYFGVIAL
Nature of the assay: TNF reporter gene assay HEK-293, mouse TNF. The assay is classed as cell-based. Particulars: HEK-293 NF-kB reporter gene assay. As for the experimental part: (§1) Stimulation of HEK-293 cells by TNF leads to activation of the NF-κB pathway. The HEK-Blue^TM CD40L SEAP (secreted embryonic alkaline phosphatase) reporter cell line used to determine TNF activity (InvivoGen, #hkb-CD40, cells were described as mycoplasma free when purchased and were tested using Mycoalert [Lonza] after each batch of assay vial preparation). Compounds were titrated in DMSO and pre-incubated with TNF at a concentration giving half maximal response (10 pM for human or 20 pM for mouse) or the anti-human TNFR1 agonist antibody (R&D Systems. #AF 225) for 1 h. Cells were added to the compound/stimulus mixture and further incubated for 18 h. SEAP was measured using the colorimetric substrate HEK-Blue Detect^TM or QUANTI-Blue^TM from InvivoGen. Percentage inhibitions for compound dilutions were calculated between a DMSO control and maximum inhibition (by excess anti-TNF biologic, or NF-κB inhibitor–TPCA-1 [Tocris #2559, R&D Systems]). The IC50 was determined as the point of inflexion between the fitted minimum and maximum of the compound dose response curve, calculated using 4PL fitted curve. Mean IC50s are reported as a mean of at least two experiments. Dose response curves for TNF and the anti-human TNFR1 agonist antibody are shown in Supplementary Fig. 9.
In general terms: In a reporter assay the amount or activity of a reporter protein is the signal.

Assay [2] deals with NF-κB stimulated by the TNFR1 agonist antibody. The experiment in a line: HEK-293 reporter gene assay, anti-TNFR1 agonist antibody stimulus. The assay is classed as cell-based, human. Conditions: agonist antibody 0.3 μg/mL; compound up to 10 µM. As for the experimental part: as §1
For assay [3], the target named is T1, mouse TNF. Nature of the assay: Mouse TNF induced neutrophil recruitment in vivo. Conditions: for CD45+ GR-1+ cells/mL in the peritoneal cavity: mouse TNF, individual mice. The procedure:
All in vivo studies were reviewed by an internal Ethical Review Body (ERB) and conducted in accordance with the Animals (Scientific Procedures) Act 1986, EU Directive 2010/63/EU. […] Anti-TNFα biologics, CDP571[21] (10 mg/kg) and etanercept (30 mg/kg), diluted in PBS, were dosed intravenously prior to human and mouse TNF challenge. Two hours after the TNF challenge, mice were sacrificed and the peritoneal cavity lavaged with 3 mL of FACS buffer. An aliquot (0.3 mL) of lavage fluid was used to assess the number CD45^+GR1^+ cells by flow cytometry. Briefly, the cells were treated with ACK lysis buffer, washed and suspended in FACS buffer prior to staining with FITC anti-mouse CD45 and PE anti-mouse GR1. Data are shown as mean ± standard error of the number of CD45^+GR-1^+ cells. Statistical significance (*p < 0.05, **p < 0.01, ****p < 0.0001) was determined using one-way ANOVA with Dunnett’s multiple comparison test.

The test system of the next assay is Balb/c mice (CAIA model). The experiment in a line: Collagen antibody induced arthritis (CAIA) model. Particulars: Ab501 i.v. then s.c.; for Daily arthritis score: individual mice, UCB-9260 150 mg/kg po bid. The assay is classed as in vivo, mouse. On the set-up: key to Daily arthritis score: 0 = no arthritis, 3 = wrist/ankle, pad and digits affected. The procedure: Ab501 (in-house anti-mouse TNF antibody, […]) was administered intravenously 6 h post-LPS administration followed by three further doses administered subcutaneously at 48-h intervals. Animals were scored for signs of arthritis and weighed daily. The following scoring system was used for signs of arthritis: 0-no arthritis, 1-wrist/ankle affected, 2-wrist/ankle and pad affected and 3-wrist/ankle, pad, and digits affected. Data shown as the mean ± standard error of arthritis clinical score for the treatment group. Statistical significance (*p < 0.05, **p < 0.01) was determined using one-way ANOVA with Dunnett’s multiple comparison test.

The next assay deals with TNF (Homo sapiens, UniProt P01375). Nature of the assay: TNF reporter gene assay HEK-293, human TNF. The assay is classed as cell-based. Also noted: stabilise an asymmetrical form of the soluble TNF trimer. The procedure: Stimulation of HEK-293 cells by TNF leads to activation of the NF-κB pathway. The HEK-Blue^TM CD40L SEAP (secreted embryonic alkaline phosphatase) reporter cell line used to determine TNF activity (InvivoGen, #hkb-CD40, cells were described as mycoplasma free when purchased and were tested using Mycoalert [Lonza] after each batch of assay vial preparation). […] Cells were added to the compound/stimulus mixture and further incubated for 18 h. SEAP was measured using the colorimetric substrate HEK-Blue Detect^TM or QUANTI-Blue^TM from InvivoGen. […] The IC50 was determined as the point of inflexion between the fitted minimum and maximum of the compound dose response curve, calculated using 4PL fitted curve. Mean IC50s are reported as a mean of at least two experiments.
Sequence of TNF (P01375 77-233 limits assumed): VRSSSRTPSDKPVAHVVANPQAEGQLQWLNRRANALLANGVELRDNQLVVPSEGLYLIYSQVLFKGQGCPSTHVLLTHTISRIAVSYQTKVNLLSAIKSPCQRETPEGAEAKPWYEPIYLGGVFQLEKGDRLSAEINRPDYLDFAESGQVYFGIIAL

Take `Cc1ccc(C)c(Cn2c(C(O)c3ccncc3)nc3ccc(-c4cnn(C)c4)cc32)c1` (stereo not shown) [UCB-9260]: the “change in Tm of other mouse TNF superfamily members” value in the assay with Mouse TNF superfamily was “negligible effect”. Further, the IC50 at mouse TNF [1] was 95 nM; against TNF it was 202 nM. For the same molecule, in assay [2], the “inhibition of NF-κB stimulated by TNFR1 agonist antibody” value is on record as “no inhibition”. The “CD45+ GR-1+ cells/mL in the peritoneal cavity” value on mouse TNF [3] (10mg/kg) was 36683.8 cells/mL and 23446.5 cells/mL and 65459.0 cells/mL and 42287.7 cells/mL and 32860.3 cells/mL and 46170.3 cells/mL and 36366.5 cells/mL; at mouse TNF [3] (30mg/kg), 68892.4 cells/mL and 37218.6 cells/mL and 45217.2 cells/mL and 30219.5 cells/mL and 27497.1 cells/mL and 16597.5 cells/mL; at mouse TNF [3] (100mg/kg) it was 11514.8 cells/mL and 33134.0 cells/mL and 13657.2 cells/mL and 18518.9 cells/mL and 17977.4 cells/mL and 18837.9 cells/mL and 21785.8 cells/mL and 22316.6 cells/mL; on mouse TNF [3] (300mg/kg), 6821.7 cells/mL and 12941.2 cells/mL and 5881.9 cells/mL and 6788.4 cells/mL and 5482.5 cells/mL and 47242.4 cells/mL and 15367.3 cells/mL and 2338.2 cells/mL. The “dose with significant inhibition of neutrophil recruitment” value on mouse TNF [3] (oral, murine TNF i.p., CD45+GR1+ cells) is recorded as 10 mg/kg. Besides, the Daily arthritis score with Balb/c mice (CAIA model) (Day 0) is 0; in the assay on Balb/c mice (CAIA model) (Day 1), 0; in the assay on Balb/c mice (CAIA model) (Day 2), 0; in the assay with Balb/c mice (CAIA model) (Day 3, 150 mg/kg), 0 and 2 and 1; with Balb/c mice (CAIA model) (Day 4, 150 mg/kg) it was 3 and 0 and 1 and 2; in the assay on Balb/c mice (CAIA model) (Day 5, 150 mg/kg) it was 2 and 0 and 1 and 3. Further, the Daily arthritis score is 1 and 0 and 2 and 3 in the assay with Balb/c mice (CAIA model) (Day 6, 150 mg/kg); 0 and 2 and 3 and 1 in the assay on Balb/c mice (CAIA model) (Day 7, 150 mg/kg). For the same molecule, in the assay on Balb/c mice (CAIA model) (UCB-9260 150 mg/kg po bid from 6 h after LPS), the “effect on arthritis clinical score” value is “significant reduction of the clinical score”. On TNF (10 pM wild-type TNF, HEK NFκΒ reporter), the “inhibition of wild-type TNF” value is reported as “inhibited”.
